One series can be described thus: clinical. As to conditions: human, in vivo; for Cmax: Cmax mean (SD); for half-life: t1/2 mean (SD).
The conditions of series [1]: 200 mg BID; cited from earlier work.
For another series, the system named is patients. The settings on record: cited from earlier work.
The conditions of series [2]: in vivo.
In the next series the test system is ovarian cancer. The settings on record: cited from earlier work.
Series [3] concerns patients with advanced refractory solid tumors.
Series [4] is described as follows: Pharmacokinetic analyses of paclitaxel and sorafenib in plasma. As to conditions: paclitaxel 80 mg/m^2 IV, C1D15 (with sorafenib); for Cmax: human, iv, Cmax mean (SD).
The mark [5] stands for this setting: in combination bevacizumab plus sorafenib, previous phase I studies.
Where [6] appears, read: recurrent ovarian cancer patients.
Where [7] appears, read: paclitaxel without bevacizumab, AURELIA paclitaxel cohort.
Where [8] appears, read: bevacizumab added to paclitaxel, AURELIA paclitaxel cohort.

Where two headings read alike, the source gives them in different places.

Compound `CNC(=O)c1cc(Oc2ccc(NC(=O)Nc3ccc(Cl)c(C(F)(F)F)c3)cc2)ccn1` [sorafenib] yielded a Cmax in “clinical” (po, 200 mg) of 2.75 µg/mL. The compound further registered an AUC(0-t) in the series “clinical” (po, 400 mg, AUC0–8 mean (SD)) of 23 µg·h/mL. In “clinical” (po, 400 mg), the concentration peaked (Cmax) at 3.83 µg/mL and the half-life was 7.8 h. This compound showed a half-life in the series “clinical” (po) of 4 h. In the series “clinical” (sorafenib AUC0–8 in non-responders), this compound gave an AUC(0-t) of 17.3 µg·h/mL. This compound came in with an AUC(0-t) in “clinical” (sorafenib AUC0–8 in responders) of 38.1 µg·h/mL. Also, the “AUC0–8, historical values with sorafenib alone” value in series [1] was 6,000–16,000 ng*h/mL. In the series with patients (anti-VEGF monotherapy, all grades), the “HFSR incidence expected with monotherapy” value was 25–50%. Moreover, the “grade 3 HFSR incidence expected with monotherapy” value in the series with patients (anti-VEGF monotherapy) is listed as 10%. In addition, the “maximum tolerated dose (MTD) of sorafenib” value in the series on patients (setting [5]) is reported as 200 mg twice daily (BID). Moreover, the “t1/2 mean (SD)” value in series [2] (human, po) was 6.5 (2.2) h. In addition, in series [2] (human, po, 200 mg), the “AUC0–8 mean (SD)” value is given as 14,911 (8,174) ng*hr/mL and the “Cmax mean (SD)” value is 4,539 (2,333) ng/mL. In the series with ovarian cancer (setting [6]), the “ORR, single agent” value is recorded as 3%; the “OS, single agent” value was 16 months; the “PFS, single agent” value is given as 2 months. For the same compound, the ORR in the series on ovarian cancer (sorafenib dosed sequentially with topotecan, TRIAS randomized phase II, platinum-resistant ovarian cancer) is on record as 31%. Also, the PFS with ovarian cancer (sorafenib dosed sequentially with topotecan, TRIAS, p=0.002) is given as 6.7 months. Further, the OS in the series on ovarian cancer (sorafenib dosed sequentially with topotecan, TRIAS, p=0.017) is listed as 17 months. Also, in series [3] (human, in vivo), the “Median number of cycles before sorafenib dose reduction to 200 mg QD 5/7” value is 3 cycles, the “Patients needing further sorafenib dose reduction to 200 mg QOD” value turned out to be 21%, the “Patients on study ≥ 4 months who had sorafenib dose reductions” value is 76% and the “Patients requiring further sorafenib dose reduction to 200 mg QD 5/7” value is 62%. Also, the “Recommended phase II dose (RP2D)” value in series [3] (human, in vivo) turned out to be 200 mg BID 5/7. Besides, the “Maximum tolerated dose (MTD)” value in series [3] (sorafenib oral, with bevacizumab 5 mg/kg Q2W and paclitaxel 80 mg/m^2 QW x 3 every 4 weeks) worked out at 200 mg BID 7/7.

Turning to `CC(=O)O[C@H]1C(=O)[C@@]2(C)[C@H]([C@H](OC(=O)c3ccccc3)[C@]3(O)C[C@H](OC(=O)[C@H](O)[C@@H](NC(=O)c4ccccc4)c4ccccc4)C(C)=C1C3(C)C)[C@]1(OC(C)=O)CO[C@@H]1C[C@@H]2O` [paclitaxel], the peak concentration (Cmax) in series [4] (cohort 1, sorafenib 200 mg BID 5/7, n=6) is 4.35 µg/mL. The Cmax in series [4] (cohorts 2/2 expansion, sorafenib 200 mg BID 7/7, n=13) was 3.48 µg/mL. For the same compound, the “Cmax mean (SD)” value in series [4] (cohort 3, sorafenib 400 mg BID 5/7, n=2) is listed as 3,804 (1306) ng/mL. In addition, in series [2], the “paclitaxel exposure with concurrent sorafenib (drug interaction)” value is “no significant differences”. In the series with ovarian cancer (setting [7]), the ORR was 30.2%, the OS is listed as 13.2 months and the PFS is given as 3.9 months.

In the case of bevacizumab, the “HTN incidence expected with monotherapy” value in the series with patients (human, in vivo) is given as 15–30%. In addition, the “maximum tolerated dose (MTD) of bevacizumab” value with patients (setting [5]) is 5 mg/kg Q2W. In addition, in the series on ovarian cancer (bevacizumab added to chemotherapy, AURELIA, p<0.001), the PFS is 6.7 months. For the same compound, the OS with ovarian cancer (bevacizumab added to chemotherapy, AURELIA, p=0.174) is on record as 16.6 months. In the series on ovarian cancer (setting [8]), the ORR is on record as 53.3%, the OS is recorded as 22.4 months and the PFS was 10.4 months. In the series with ovarian cancer (setting [6]), the “ORR, single agent” value is on record as 20% and the “OS, single agent” value is on record as 17 months.

As for `CC[C@@]1(O)C(=O)OCc2c1cc1n(c2=O)Cc2cc3c(CN(C)C)c(O)ccc3nc2-1` [topotecan], in the series on ovarian cancer (topotecan alone, TRIAS), the OS is 10 months and the PFS is 4.4 months.
